Patent US8937077B2, “Bicyclic diamines as janus kinase inhibitors” (Merck Sharp & Dohme Corp., priority 2010, dated 2015)

Each compound was assayed against T1, Jak1 (Homo sapiens, UniProt P23458) (assay: Jak Biochemical HTRF Assay (Jak1)). Details: IC50 class, recombinant GST-tagged catalytic domain, read-out: Jak1 activity.
T1 construct: using a recombinant purified GST-tagged catalytic domain for each enzyme; GST; purchased Invitrogen M4290
Method in brief: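 Recombinant GST-tagged Jak1 catalytic domain was preincubated with compound and peptide substrate for 30 min at room temperature, and the reaction was then started with ATP and run 120 min. Buffer contained 2 mM DTT and 0.05% BSA. Read-out was HTRF (665/615 nm) with Eu-pY20 antibody and streptavidin-Dylight, and IC50 values came from 4-parameter fits of percent inhibition.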

T1 sequence (P23458 875-1153 limits assumed): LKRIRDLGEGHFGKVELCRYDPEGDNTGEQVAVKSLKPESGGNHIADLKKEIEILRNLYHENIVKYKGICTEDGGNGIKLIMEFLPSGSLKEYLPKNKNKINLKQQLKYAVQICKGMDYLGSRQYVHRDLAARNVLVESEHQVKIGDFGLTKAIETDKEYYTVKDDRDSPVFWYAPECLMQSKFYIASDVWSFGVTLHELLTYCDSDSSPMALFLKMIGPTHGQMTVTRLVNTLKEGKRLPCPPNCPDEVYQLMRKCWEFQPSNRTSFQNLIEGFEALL

IC50	SMILES
10 to 100 nM	O=C(c1cnc2ccccc2c1)N1CCC[C@@H]2[C@H]1CCN2c1ncnc2[nH]ccc12 [Example 29-44, 3-{[(3aR,7aR)-1-(7H-pyrrolo[2,3-d]pyrimidin-4-yl)octahydro-4H-pyrrolo[3,2-b]pyridin-4-yl]carbonyl}quinoline]
10 to 100 nM	O=C(OCCF)N1CCC[C@@H]2[C@H]1CCN2c1ncnc2[nH]ccc12 (single isomer, unassigned) [Example 3-30]
100 to 1000 nM	O=C1CCCN1CC(=O)N1CCC[C@@H]2[C@H]1CCN2c1ncnc2[nH]ccc12 [Example 29-16, 1-{2-oxo-2-[(3aR,7aR)-1-(7H-pyrrolo[2,3-d]pyrimidin-4-yl)octahydro-4H-pyrrolo[3,2-b]pyridin-4-yl]ethyl}pyrrolidin-2-one]
10 to 100 nM	COC(=O)c1cccc(OC(=O)N2CCCC3C2CCN3c2ncnc3[nH]ccc23)c1 (centres unmarked) [Example 3-26, 3-(methoxyeaxbonyl)phenyl 1-(7H-pyrrolo[2,3-d]pyrimidin-4-yl)octahydro-4H-pyrrolo[3,2-b]pyridine-4-carboxylate]
100 to 1000 nM	CN(C)CCN(C)C(=O)c1ccc(COC(=O)N2CCC[C@@H]3[C@H]2CCN3c2ncnc3[nH]ccc23)cc1 [Example 7-5, 4-{[2-(dimethylamino)ethyl](methyl)carbamoyl}benzyl (3aR,7aR)-1-(7H-pyrrolo[2,3-d]pyrimidin-4-yl)octahydro-4H-pyrrolo[3,2-b]pyridine-4-carboxylate]
10 to 100 nM	COC(=O)C1CC1CCOC(=O)N1CCC[C@@H]2[C@H]1CCN2c1ncnc2[nH]ccc12 (stereo partly drawn) [Example 3-29, 2-[2-(methoxycarbonyl)cyclopropyl]ethyl (3aR,7aR)-1-(7H-pyrrolo[2,3-d]pyrimidin-4-yl)octahydro-4H-pyrrolo[3,2-b]pyridine-4-carboxylate]
10 to 100 nM	CCCCC(=O)N1CCCC2C1CCN2c1ncnc2[nH]ccc12 (racemic) [Example 29-2, 4-(4-pentanoyloctahydro-1H-pyrrolo[3,2-b]pyridin-1-yl)-7H-pyrrolo[2,3-d]pyrimidine]
10 to 100 nM	N#Cc1ccccc1C(=O)N1CCC[C@@H]2[C@H]1CCN2c1ncnc2[nH]ccc12 [Example 29-33, 2-{[(3aR,7aR)-1-(7H-pyrrolo[2,3-d]pyrimidin-4-yl)octahydro-4H-pyrrolo[3,2-b]pyridin-4-yl]carbonyl}benzonitrile]
100 to 1000 nM	O=C(c1cc(-c2cccc(F)c2)no1)N1CCC[C@@H]2[C@H]1CCN2c1ncnc2[nH]ccc12 [Example 29-57, 4-[(3aR,7aR)-4-{[3-(3-fluorophenyl)isoxazol-5-yl]carbonyl}octahydro-1H-pyrrolo[3,2b]pryidin-1-yl]-7H-pyrrolo[2,3-d]pyrimidine]
10 to 100 nM	COC(=O)c1ccc(CCCOC(=O)N2CCC[C@@H]3[C@H]2CCN3c2ncnc3[nH]ccc23)cc1 [Example 3-22, 3-[4-(methoxycarbonyl)phenyl]propyl (3aR,7aR)-1-(7H-pyrrolo[2,3-d]pyrimidin-4-yl)octahydro-4H-pyrrolo[3,2-b]pyridine-4-carboxylate]
100 to 1000 nM	O=C(C(c1ccccc1)c1ccccc1)N1CCC[C@@H]2[C@H]1CCN2c1ncnc2[nH]ccc12 [Example 29-24, 4-[(3aR,7aR)-4-(diphenylacetyl)octahydro-1H-pyrrolo[3,2-b]pyridin-1-yl]-7H-pyrrolo[2,3-d]pyrimidine]
10 to 100 nM	O=C(c1cccc2cnccc12)N1CCC[C@@H]2[C@H]1CCN2c1ncnc2[nH]ccc12 [Example 29-37, 5-{[(3aR,7aR)-1-(7H-pyrrolo[2,3-d]pyrimidin-4-yl)octahydro-4H-pyrrolo[3,2-b]pyridin-4-yl]carbonyl}isoquinoline]
100 to 1000 nM	COC(=O)c1ccc(CCCN2CCC[C@@H]3[C@H]2CCN3c2ncnc3[nH]ccc23)cc1 [Example 13, methyl 4-{3-[(3aR,7aR)-1-(7H-pyrrolo[2,3-d]pyrimidin-4-yl)octahydro-4H-pyrrolo[3,2-b]pyridin-4-yl]propyl}benzoate]
100 to 1000 nM	NCc1ccc(COC(=O)N2CCC[C@@H]3[C@H]2CCN3c2ncnc3[nH]ccc23)cc1 [Example 9, 4-(aminomethyl)benzyl (3aR,7aR)-1-(7H-pyrrolo[2,3-d]pyrimidin-4-yl)octahydro-4H-pyrrolo[3,2-b]pyridine-4-carboxylate]
10 to 100 nM	CC(C)S(=O)(=O)N1CCC[C@@H]2[C@H]1CCN2c1ncnc2[nH]ccc12 [Example 32-1, 4-{(3aR,7aR)-4-[(1-methylethyl)sulfonyl]octahydro-1H-pyrrolo[3,2-b]pyridin-1-yl}-7H-pyrrolo[2,3-d]pyrimidine]
10 to 100 nM	O=C(c1nccc2ccccc12)N1CCC[C@@H]2[C@H]1CCN2c1ncnc2[nH]ccc12 [Example 29-47, 1-{[(3aR,7aR)-1-(7H-pyrrolo[2,3-d]pyrimidin-4-yl)octahydro-4H-pyrrolo[3,2-b]pyridin-4-yl]carbonyl}isoquinoline]
10 to 100 nM	CCS(=O)(=O)N1CCC[C@@H]2[C@H]1CCN2c1ncnc2[nH]ccc12 (single isomer, unassigned) [Example 32-3]
100 to 1000 nM	CN1CCCC(CCC(=O)N2CCC[C@@H]3[C@H]2CCN3c2ncnc3[nH]ccc23)C1 (stereo partly drawn) [Example 29-55, 4-{(3aR,7aR)-4-[3-(1-methylpiperidin-3-yl)propanoyl]octahydro-1H-pyrrolo[3,2-b]pyridin-1-yl}-7H-pyrrolo[2,3-d]pyrimidine]
10 to 100 nM	O=C(OCc1ccc(Cl)cc1)N1CCCC2C1CCN2c1ncnc2[nH]ccc12 (centres unmarked) [Example 3-6, 4-chlorobenzyl 1-(7H-pyrrolo[2,3-d]pyrimidin-4-yl)octahydro-4H-pyrrolo[3,2-b]-pyridine-4-carboxylate]
100 to 1000 nM	O=C(O)c1ccc(CCOC(=O)N2CCC[C@@H]3[C@H]2CCN3c2ncnc3[nH]ccc23)cc1 [Example 28, 4-[2-({[(3aR,7aR)-1-(7H-pyrrolo[2,3-d]pyrimidin-4-yl)octahydro-4H-pyrrolo[3,2-b]pyridin-4-yl]carbonyl}oxy)ethyl]benzoic acid]
10 to 100 nM	Cn1c(C(=O)N2CCC[C@@H]3[C@H]2CCN3c2ncnc3[nH]ccc23)cc2ccccc21 [Example 29-21, 4-{(3aR,7aR)-4-[(1-methyl-1H-indol-2-yl)carbonyl]octahydro-1H-pyrrolo[3,2-b]pyridin-1-yl}-7H-pyrrolo[2,3-d]pyrimidine]
10 to 100 nM	C[C@H](OC(=O)N1CCCC2C1CCN2c1ncnc2[nH]ccc12)c1ccccc1 (stereo partly drawn) [Example 3-24, (1S)-1-phenylethyl 1-(7H-pyrrolo[2,3-d]pyrimidin-4-yl)octahydro-4H-pyrrolo[3,2-b]-pyridine-4-carboxylate]
10 to 100 nM	CC(Cc1ccccc1)C(=O)N1CCC[C@@H]2[C@H]1CCN2c1ncnc2[nH]ccc12 (stereo partly drawn) [Example 29-42, 4-[(3aR,7aR)-4-(2-methyl-3-phenylpropanoyl)octahydro-1H-pyrrolo[3,2-b]pyridin-1-yl]-7H-pyrrolo[2,3-d]pyrimidine]
1 to 10 nM	COC(=O)c1ccc(COC(=O)N2CCC[C@@H]3[C@H]2CCN3c2ncnc3[nH]ccc23)cc1 [Example 4, 4-(methoxycarbonyl)benzyl (3aR,7aR)-1-(7H-pyrrolo[2,3-d]pyrimidin-4-yl)octahydro-4H-pyrrolo[3,2-b]pyridine-4-carboxylate]

Same assay, conditions: recombinant GST-tagged catalytic domain, 31.8 μM ATP, read-out: Representative IC50 values

IC50	SMILES
169 nM	COC(=O)c1ccc(CCCN2CCC[C@@H]3[C@H]2CCN3c2ncnc3[nH]ccc23)cc1 [Example 13, methyl 4-{3-[(3aR,7aR)-1-(7H-pyrrolo[2,3-d]pyrimidin-4-yl)octahydro-4H-pyrrolo[3,2-b]pyridin-4-yl]propyl}benzoate]
2 nM	COC(=O)c1ccc(COC(=O)N2CCC[C@@H]3[C@H]2CCN3c2ncnc3[nH]ccc23)cc1 [Example 4, 4-(methoxycarbonyl)benzyl (3aR,7aR)-1-(7H-pyrrolo[2,3-d]pyrimidin-4-yl)octahydro-4H-pyrrolo[3,2-b]pyridine-4-carboxylate]
